Test results taken from patent publication US9889180B2, “Method of treating cancer” (Agency for Science, Technology and Research, priority 2012, dated 2018).

Tests used:
IFNGR1 promoter = assay: ChIP analysis of EZH2 and H3K27me3 enrichments at IFNGR1 in DU145 cells; type: cell-based, human; settings: GSK126 (5 μM), 3 days, compared with DZNep
Protocol: ChIP assays were performed as described previously. […] The immunoprecipitated DNA was quantified by quantitative real-time PCR using KAPA SyBr Fast qPCR kit (KAPA biosystems) with the specific ChIP primers as listed in the Table 4. Quantification of binding to the promoter was defined as the percentage of the whole cell lysate input DNA. The fold enrichment was derived by normalizing the specific antibody enriched against the IgG-enriched chromatin. CNR1 serves a positive control and Actin is a negative control. Significance of target genes was assessed relative to Actin level.

solid tumor cells = settings: very recent report; cited from earlier work
DU145 cells [1] = assay: FACS sub-G1 DNA analysis (apoptosis) in DU145 cells; type: cell-based, human; settings: for apoptotic effect (sub-G1) / apoptosis (sub-G1) with other epigenetic compounds: in combination with IFN-γ; for apoptotic effect (sub-G1): treated for either 3 days or 10 days; for apoptosis (sub-G1) with other epigenetic compounds: compared with DZNep
Protocol: For the assessment of cell death, cells were harvested in 70% ethanol. Fixed cells were stained with Propidium Iodide (P.I) (50 μg/mL). The stained cells were analyzed for DNA content by FACS in a FACSCalibur (Becton Dickinson Instrument). % of cell death was defined as the sub-G1 population quantified using the CellQuest software (Becton Dickinson). The percentage of dead cells or sub-G1 cells was calculated by comparing the results of each experiment to the results from DMSO-treated cells. Each assay was repeated a minimum of three times, with results reported as means+s.e.m.

[2] = tested on: IFNGR1 expression and IFN-γ-STAT1 signaling; assay: qRT-PCR and western blot of IFNGR1 expression and IFN-γ signaling in DU145 cells; type: cell-based, human
Protocol: All cells were maintained at 37° C. with 5% CO2. Cells were grown until they were 80% confluent before they are treated the respective drugs. For drug treatment, DZNep and GSK126 were purchased from Pharmaron Inc. (Beijing, China), GSK343 was kindly provided by Chemical Probes of University of Toronto, 5′Aza, TSA and human recombinant IFN-γ was purchased from Sigma. For rescue experiment using IFNGR1 blocking antibody, the neutralizing antibody that specifically targets IFNGR1 (anti-CD119, GIR-208, BD Pharmingen) was added to the medium 4 hour prior to the addition of DZNep or/and IFN-γ. Total RNA was isolated by using Trizol (Invitrogen) and purified with the RNeasy Mini Kit (Qiagen). The microarray hybridization was performed using the Illumina Gene Expression Sentrix BeadChip HumanRef-8_V3, and data analysis was performed by GeneSpring software from Agilent Technologies as described previously. The analyzed gene sets by GeneSpring were next subjected to Ingenuity Pathway Analysis (IPA) for gene ontology (GO) analysis. Reverse transcription and quantitative PCR assays were performed using High Capacity cDNA Archive kit and KAPA SyBr Fast qPCR kit (KAPA biosystems). For quantification of mRNA levels, 18S level was used as an internal control. All reactions were analyzed in an Applied Biosystems PRISM 7500 Fast Real-Time PCR system in 96-well plate format. Western Blotting was performed as described previously. Briefly, Cells were scraped, collected, and lysed in RIPA buffer. To release histones from chromatin, cell lysates were further sonicated for 15 sec using a XL2000 Microson Ultrasonic Processor (Misonix). Equal amounts of protein (30 μg) were separated on SDS-polyacrylamide gels and transferred to PVDF membranes. The blots were probed with antibodies against EED (07-368), SUZ12 (07-379), trimethylated H3-K27 (07-449), Acetyl-Histone H3 (06-599), which were purchased from Upstate Biotechnology. IFNGR1 (GIR-94) and anti-IFI16 (1G7) were purchased from Santa Cruz. EZH2 phospho S21 (00388) was purchased from Bethyl Laboratories. EZH2 (AC22), P110α PI3K, p-AKT (T308), p-AKT (S473), pSTAT1Y701, total STAT1, Histone H3 (3H1), Beclin-1 and cleaved PARP were purchased from Cell Signaling. Myc and Actin were purchased from Roche Applied Science and Sigma-Aldrich, respectively.

EZH2/PRC2 and H3K27me3 = target: T1, EZH2/PRC2 and H3K27me3 (Homo sapiens, UniProt Q15910); assay: Western blot of PRC2 proteins and H3K27me3 in DU145 cells; type: cell-based
T1 construct: endogenous in cells; host or cells: DU145 (named by the earlier reading of the assay)
T1 sequence (Q15910 whole entry): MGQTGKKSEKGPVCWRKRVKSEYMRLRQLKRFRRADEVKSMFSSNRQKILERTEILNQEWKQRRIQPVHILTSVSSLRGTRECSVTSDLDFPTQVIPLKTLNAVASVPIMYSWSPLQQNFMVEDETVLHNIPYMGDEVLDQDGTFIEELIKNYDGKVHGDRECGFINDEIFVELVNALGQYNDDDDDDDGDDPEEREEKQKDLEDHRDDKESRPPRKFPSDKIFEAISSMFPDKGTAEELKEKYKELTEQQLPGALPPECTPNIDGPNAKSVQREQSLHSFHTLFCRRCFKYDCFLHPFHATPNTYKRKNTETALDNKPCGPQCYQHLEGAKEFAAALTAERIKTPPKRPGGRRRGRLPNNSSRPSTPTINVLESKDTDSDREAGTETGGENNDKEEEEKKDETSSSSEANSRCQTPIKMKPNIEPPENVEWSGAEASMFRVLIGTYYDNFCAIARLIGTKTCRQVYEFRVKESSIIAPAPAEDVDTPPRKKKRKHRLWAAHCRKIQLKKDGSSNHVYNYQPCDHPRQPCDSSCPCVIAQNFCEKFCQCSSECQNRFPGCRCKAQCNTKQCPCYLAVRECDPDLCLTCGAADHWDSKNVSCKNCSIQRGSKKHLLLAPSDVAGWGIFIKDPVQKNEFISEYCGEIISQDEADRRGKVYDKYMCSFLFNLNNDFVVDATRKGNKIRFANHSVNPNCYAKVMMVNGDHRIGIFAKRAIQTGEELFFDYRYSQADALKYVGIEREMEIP
T1 sequence (O75530 whole entry partner): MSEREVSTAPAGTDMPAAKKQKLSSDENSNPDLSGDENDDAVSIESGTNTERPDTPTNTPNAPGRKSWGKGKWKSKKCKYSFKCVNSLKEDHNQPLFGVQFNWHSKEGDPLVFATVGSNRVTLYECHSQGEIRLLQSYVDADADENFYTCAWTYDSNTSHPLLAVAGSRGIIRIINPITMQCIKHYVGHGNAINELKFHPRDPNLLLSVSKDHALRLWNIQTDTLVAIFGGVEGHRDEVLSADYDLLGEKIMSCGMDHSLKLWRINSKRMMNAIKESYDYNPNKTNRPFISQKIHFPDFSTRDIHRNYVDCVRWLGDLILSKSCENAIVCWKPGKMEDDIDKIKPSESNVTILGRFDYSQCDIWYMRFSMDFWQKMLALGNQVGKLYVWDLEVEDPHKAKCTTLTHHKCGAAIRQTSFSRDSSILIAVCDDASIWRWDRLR
T1 sequence (Q15022 whole entry partner): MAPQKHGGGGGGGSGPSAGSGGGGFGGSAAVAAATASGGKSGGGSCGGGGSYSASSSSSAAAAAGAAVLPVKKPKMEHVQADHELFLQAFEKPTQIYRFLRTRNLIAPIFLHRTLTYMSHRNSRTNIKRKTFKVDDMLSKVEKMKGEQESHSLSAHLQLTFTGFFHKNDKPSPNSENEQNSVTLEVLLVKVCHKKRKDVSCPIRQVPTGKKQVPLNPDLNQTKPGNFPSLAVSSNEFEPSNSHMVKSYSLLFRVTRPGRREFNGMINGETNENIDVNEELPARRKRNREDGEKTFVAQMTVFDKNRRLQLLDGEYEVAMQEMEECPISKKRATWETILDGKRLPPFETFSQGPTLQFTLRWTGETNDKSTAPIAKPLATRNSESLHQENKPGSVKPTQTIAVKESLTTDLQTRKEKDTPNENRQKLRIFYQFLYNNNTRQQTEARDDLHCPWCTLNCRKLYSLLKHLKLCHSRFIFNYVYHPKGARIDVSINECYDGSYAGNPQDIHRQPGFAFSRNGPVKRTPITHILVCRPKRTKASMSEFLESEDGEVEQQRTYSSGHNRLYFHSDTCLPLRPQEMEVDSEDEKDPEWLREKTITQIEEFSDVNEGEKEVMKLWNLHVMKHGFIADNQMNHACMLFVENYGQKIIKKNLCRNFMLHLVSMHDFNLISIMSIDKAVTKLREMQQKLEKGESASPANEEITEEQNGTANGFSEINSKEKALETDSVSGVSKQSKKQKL
Protocol: Western Blotting was performed as described previously. Briefly, Cells were scraped, collected, and lysed in RIPA buffer. To release histones from chromatin, cell lysates were further sonicated for 15 sec using a XL2000 Microson Ultrasonic Processor (Misonix). Equal amounts of protein (30 μg) were separated on SDS-polyacrylamide gels and transferred to PVDF membranes. The blots were probed with antibodies against EED (07-368), SUZ12 (07-379), trimethylated H3-K27 (07-449), Acetyl-Histone H3 (06-599), which were purchased from Upstate Biotechnology. IFNGR1 (GIR-94) and anti-IFI16 (1G7) were purchased from Santa Cruz. EZH2 phospho S21 (00388) was purchased from Bethyl Laboratories. EZH2 (AC22), P110α PI3K, p-AKT (T308), p-AKT (S473), pSTAT1Y701, total STAT1, Histone H3 (3H1), Beclin-1 and cleaved PARP were purchased from Cell Signaling. Myc and Actin were purchased from Roche Applied Science and Sigma-Aldrich, respectively.

LNCaP cells = assay: Cell proliferation assay (CellTiter-Glo) in LNCaP cells; type: cell-based, human; settings: siRNA knockdown combined with IFN-γ treatment
Protocol: (§1) The optimal cell seeding was determined empirically for all cell lines by examining the growth of a wide range of seeding densities in a 96-well format to identify conditions that permitted proliferation for 6 days. Cells were then plated at the optimal seeding density 24 h before siRNA or drug treatment in triplicate. Plates were incubated for 6 days at 37° C. in 5% CO2. Cells were then lysed with CellTiter-Glo (CTG) (Promega) and chemiluminescent signal was detected with a microplate reader (TECAN). In addition, an untreated plate of cells was harvested at the time of drug or siRNA addition (T0) to quantify the starting number of cells. CTG values obtained after the 6 day treatment were expressed as percentages of the T0 value and plotted against time of treatment. Cells received 1-5 μM of DZNep, 25 ng/mL of IFN-γ and 0.1-2.5 μM of GSK343 unless stated otherwise for 72-96 h.

DU145 cells [3] = assay: Cell proliferation assay (CellTiter-Glo) in DU145 cells; type: cell-based, human; settings: siRNA knockdown combined with IFN-γ treatment
Protocol: as §1

DU145 xenograft tumor = DU145 xenograft tumor growth in male athymic nude mice; type: in vivo; settings: IFN-γ 1×10^7 IU/kg i.p. daily, DZNep 1 mg/kg s.c. every alternating day, 38 days
Protocol: For in vivo evaluation of DZNep and IFN-γ treatment, the experiments were conducted in compliance with animal protocol approved by the ASTAR-Biopolis Institutional Animal Care and Use Committee (IACUC) of Singapore. DU145 cells were subcutaneously injected into 6-8 week male nude mice at 5×10^6 cells, followed by treatment with vehicle, IFN-γ (1×10^7 IU/kg) alone, DZNep (1 mg/kg) alone or combined DZNep (1 mg/kg) with IFN-γ (1×10^7IU/kg). IFN-γ was administered by intraperitoneal injection daily and DZNep by subcutaneous injection on every alternating day over a duration of 38 days after average tumor size reached around 150 mm^3. Tumors were measured by vernier calliper at least twice per week and tumors volume was calculated with formula: V=W*W*L/2. Each xenograft treatment arm comprised of 5-8 mice. Differences among groups and treatments were determined by ANOVA followed by t tests. (***p<0.001, n.s=not significant) Error bars represent means±s.e.m

In the case of `CC[C@H](C)n1cc(C)c2c(C(=O)NCc3c(C)cc(C)[nH]c3=O)cc(-c3ccc(N4CCNCC4)nc3)cc21` [GSK126, N-[(4,6-dimethyl-2-oxo-1,2-dihydro-3-pyridinyl)methyl]-3-methyl-1-((1S)-1-methylpropyl)-6-[6-(1-piperazinyl)-3-pyridinyl]-1H-indole-4-carboxamide], the “H3K27me3 enrichment at the IFNGR1 gene promoter” value (IFNGR1 promoter) is listed as “more efficiently depleted H3K27me3”, the “ability to induce the loss of cell viability” value (solid tumor cells) is listed as “unable to do so” and the “apoptotic effect (sub-G1)” value (DU145 cells [1]) is listed as “failed to see an apoptotic effect”. The IFNGR1 expression ([2]; GSK126 up to 10 μM for 10 days) was “modest induction of IFNGR1”.

With `CCCc1cc(C)[nH]c(=O)c1CNC(=O)c1cc(-c2ccnc(N3CCN(C)CC3)c2)cc2c1cnn2C(C)C` [GSK343, N-[(6-methyl-2-oxo-4-propyl-1,2-dihydropyridin-3-yl)methyl]-6-[2-(4-methylpiperazin-1-yl)pyridin-4-yl]-1-(propan-2-yl)-1H-indazole-4-carboxamide] the “apoptotic effect (sub-G1)” value (DU145 cells [1]) was “failed to see an apoptotic effect”, the IFNGR1 expression ([2]; GSK343 up to 2.5 μM for 3 days) was “did not show an induction of IFNGR1” and the “depletion of H3K27me3” value (EZH2/PRC2 and H3K27me3; GSK343 at as low as 0.1 μM, 3 days) was “efficient depletion of H3K27me3”.

In the case of `O=C(CCCCCCC(=O)Nc1ccccc1)NO` [SAHA], the “apoptosis (sub-G1) with other epigenetic compounds” value (DU145 cells [1]) is reported as “did not give rise to such a response”.

With `CC(/C=C/C(=O)NO)=C\[C@@H](C)C(=O)c1ccc(N(C)C)cc1` [TSA] the “apoptosis (sub-G1) with other epigenetic compounds” value (DU145 cells [1]) was “did not give rise to such a response”.

In the case of “MYC knockdown: MYC siRNA: 5′-UCCUGAGACAGAUCAGCAACAACCG-3′ (SEQ ID NO:2) (other strand not given here)”, the “cell growth after knockdown” value (LNCaP cells) is reported as “no such an effect was seen”, the “apoptosis (sub-G1) after knockdown” value (DU145 cells [1]; siRNA knockdown in combination with IFN-γ) is reported as “apoptosis induction” and the “cell growth after knockdown” value (DU145 cells [3]) is reported as “remarkable synergy in cell growth regression”. The “EZH2 expression after knockdown” value (EZH2/PRC2 and H3K27me3) was “decreased EZH2 expression”.

B1: IFN-γ: human recombinant IFN-γ purchased from Sigma; enhancer of interferon-gamma receptor activity (protein)
chain: QDPYVKEAENLKKYFNAGHSDVADNGTLFLGILKNWKEESDRKIMQSQIVSFYFKLFKNFKDDQSIQKSVETIKEDMNVKFFNSNKKKRDDFEKLTNYSVTDLNVQRKAIHELIQVMAELSPAAKTGKRKRSQMLFRGRRASQ
For B1, the xenograft tumor growth (DU145 xenograft tumor) was “slowed down the tumor growth”.
